{"source": "patent US20010020032A1", "about": "“COATED PARTICLE FORMULATION” (priority 1996, published 2001)", "key": {"[1]": {"test": "Detection of radiolabelled compound in saliva", "format": "in vivo", "procedure": "Olanzapine is effective over a wide dosage range, the actual dose administered being dependent on the condition being treated. For example, in the treatment of adult humans, dosages of from about 0.25 to 50 mg, preferably from 1 to 30 mg, and most preferably 1 to 25 mg per day may be used. A once a day dosage is normally sufficient, although divided doses may be administered. For treatment of central nervous system disorders, a dose range of from 1 to 30 mg, preferably 1 to 25 mg per day is suitable."}, "[2]": {"test": "Polymorphic stability of Form II on solvent contact", "format": "physicochemical", "conditions": "contact with methylene chloride"}, "[3]": {"test": "Stability studies: discoloration on storage or excipient contact", "format": "physicochemical", "conditions": "olanzapine substance in contact with polyethylene glycol, particularly under moist conditions"}}}
{"smiles": "Cc1cc2c(s1)Nc1ccccc1N=C2N1CCN(C)CC1", "note": "[Radiolabelled Form II, 2-methyl-4-(4-methyl-1-piperazinyl)-10H-thieno-[2,3-b][1,5]benzodiazepine]", "values": [{"measurement": "detection in saliva", "setting": "[1]", "value": "can be detected in the saliva"}]}
{"smiles": "Cc1cc2c(s1)Nc1ccccc1N=C2N1CCN(C)CC1", "note": "[Form II, 2-methyl-4-(4-methyl-1-piperazinyl)-10H-thieno[2,3-b][1,5]benzodiazepine]", "values": [{"measurement": "conversion to other polymorphic forms", "setting": "[2]", "value": "can be converted to less desirable polymorphic forms"}]}
{"smiles": "Cc1cc2c(s1)Nc1ccccc1N=C2N1CCN(C)CC1", "note": "[olanzapine, 2-methyl-4-(4-methyl-1-piperazinyl)-10H-thieno[2,3-b][1,5] benzodiazepine]", "values": [{"measurement": "discoloration on polyethylene glycol contact", "setting": "[3]", "value": "produces undesired discoloration"}]}
